Measured values taken from paper PMC9130766 (Frontiers in Pharmacology, 2022).
“Also recorded” adds a separate entry of the source. Like-named read-outs stand apart in the source and are kept apart here.

What was measured:
[1] = molecular target: T1, bacterial neuraminidase (BNA) (Clostridium perfringens, UniProt P10481); assay: biochemical; format: biochemical, C. perfrigens
[2] = molecular target: T1, bacterial neuraminidase (BNA); assay: biochemical; format: biochemical, C. perfrigens; remark: listed apart in the source
[3] = molecular target: T1, bacterial neuraminidase (BNA); assay: biochemical; format: binding, C. perfrigens
[4] = tested on: E. coli; assay: Cell growth of E. coli (OD 600 nm); format: cell-based, Escherichia coli; settings: up to a concentration of 296 µM, compared to the control
Procedure: Escherichia coli was used in the study. All experiments were conducted in Difco™ Nutrient Broth (DNB) medium at 37°C. The E. coli was removed from glycerol stock at −80 C and transferred to the DNB plate. Next, in a 250 ml flask, a fresh single colony was inoculated into DNB (25 ml) medium and cultured at 37 C with 250 rpm for 24 h. Using the SpectraMaxM3 Multi-Mode Microplate Reader cell growth was found in the presence of different concentrations of compounds at optical densities of 600 nm. All experiments were conducted with at least three independent cultures ([Cho et al., 2013]).
Bacterial biofilms are a serious health concern owing to their abilities to tolerate antibiotics, host defense systems, and other external stresses ([Sharma et al., 2019]). It is generally accepted that neuraminidase participates in biofilm production together with quorum sensing. […] The crystal violet staining method was used for the detection of biofilm production. To investigate biofilm inhibition, E. coli was cultured overnight with or without inhibitor 1 in a 96-well plate.

[5] = molecular target: T1, bacterial neuraminidase (BNA); format: biochemical, C. perfrigens
[6] = tested on: E. coli biofilm; assay: Antibiofilm assay (crystal violet staining); format: cell-based; settings: Escherichia coli, 24 h, 37°C, read-out: concentration giving 50% inhibition of E. coli biofilm production
Procedure: A 96-well microtiter plate (polystyrene) was used to measure the anti-biofilm activity as described previously ([Mohanta et al., 2020]). First, 180 μl of DNB and 10 μl of the test pathogens (OD = 1.0, 600 nm) were added to individual wells. Then, 10 μl solutions of ugonin J with different concentrations was added to each well and the contents of each well were mixed thoroughly. The prepared plate was then incubated for 24 h in a static condition at 37°C. After incubation, the supernatant in the wells in the plate was discarded and the residue washed with phosphate buffered saline (pH 7.2) to remove the free-floating non-adherent cells from the wells in the plate. The plate was then air-dried for about 45 min before the bacteria in the wells were fixed with 2% (w/v) sodium acetate. This was followed by flooding the wells with crystal violet stain (0.1%, w/v) and incubation in the dark for 30 min. After this, the wells in the plate were washed with sterile deionized water to remove all dye and allowed to dry. After drying, each well in the plate was filled with 200 μl of ethanol (95%, v/v) and the absorbance of this solution was measured at 620 nm using the SpectraMax M3 Multi-Mode Microplate Reader. All assays were conducted in triplicate and the mean ± standard deviation was calculated. […]

[7] = IC50, inhibition of bacterial neuraminidase (BNA)
[8] = pH 5.0, read-out: IC50, inhibition of bacterial neuraminidase (BNA)

T1 sequence (P10481 whole entry, looked up): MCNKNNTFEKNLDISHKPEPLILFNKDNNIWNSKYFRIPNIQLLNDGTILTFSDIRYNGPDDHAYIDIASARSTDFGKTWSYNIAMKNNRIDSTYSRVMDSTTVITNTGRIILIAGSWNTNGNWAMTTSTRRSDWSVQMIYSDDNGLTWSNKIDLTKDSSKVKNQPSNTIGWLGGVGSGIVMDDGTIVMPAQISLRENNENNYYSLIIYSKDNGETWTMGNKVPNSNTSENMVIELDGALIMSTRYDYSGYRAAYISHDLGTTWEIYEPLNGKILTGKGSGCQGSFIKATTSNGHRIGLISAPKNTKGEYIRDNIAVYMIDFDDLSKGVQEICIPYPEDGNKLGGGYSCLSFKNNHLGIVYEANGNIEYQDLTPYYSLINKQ

Structure (SMILES)	IC50 [1, 7] [nM]	IC50 [1, 8] [nM]	Ki [2] [nM]	Kinetic mode [2]	K SV (Stern-Volmer quenching constant) [3] [L/mol]	Kd [3] [nM]	n (number of binding sites) [3]	fold greater BNA inhibitive ability than parent (mother) compound [1] [fold]	reversibility of BNA inhibition [2]	growth inhibition of E. coli [4]	k 5 [5] [min⁻¹]	k 6 [5] [min⁻¹]	IC50 [6] [nM]	fluorescence (FS) reduction of BNA [3]
CC1(C)CCC[C@@]2(C)Oc3c(c(O)cc4oc(-c5ccc(O)c(O)c5)cc(=O)c34)C[C@@H]12 [Compound 5, ugonin S]	140	280	250	Noncompetitive (0.25)	70000	16700	1.24	–	–	–	–	–	–	–
CC1(C)CCCC2(C)Oc3cc4oc(-c5ccc(O)c(O)c5)cc(=O)c4c(O)c3CC12 (centres unmarked) [Compound 6, ugonin U]	–	350	290	Noncompetitive (0.29)	50000	33300	1.44	–	–	–	–	–	–	–
O=c1c(O)c(-c2ccc(O)c(O)c2)oc2cc(O)cc(O)c12 [Quercetin, reference compound]	20400	–	–	–	–	–	–	–	–	–	–	–	–	–
O=C1C[C@@H](c2ccc(O)c(O)c2)Oc2cc(O)cc(O)c21 [Eriodictyol, reference compound]	–	17800	–	–	–	–	–	–	–	–	–	–	–	–
C=C1CCCC(C)(C)C1Cc1c(O)cc2c(c1O)C(=O)CC(c1ccc(O)c(O)c1)O2 (centres unmarked) [Compound 2, 2-(3,4-dihydroxyphenyl)-6-[(2,2-dimethyl-6 methylenecyclohexyl)methyl]-5,7-dihydroxy-chroman-4-one]	–	70	60	Noncompetitive (0.06)	2.53e+06	746	1.01	250	–	–	–	–	–	–
C=C1CCCC(C)(C)[C@@H]1Cc1c(O)cc2oc(-c3ccc(O)c(O)c3)cc(=O)c2c1O [Compound 1, ugonin J]	–	50	–	noncompetitive inhibitor; also recorded: Noncompetitive (0.05)	4.77e+06	282	1.30	–	reversible inhibitor	no growth inhibition	0.0103	0.0486	18000	complete FS reduction
CC1=CCCC(C)(C)C1Cc1c(O)c(O)cc2oc3c(=O)c4c(O)cc(O)cc4oc3c12 (centres unmarked) [Compound 4, ugonin M]	–	150	120	Noncompetitive (0.12)	810000	1180	1.13	–	–	–	–	–	–	–
O=c1cc(-c2ccc(O)c(O)c2)oc2cc(O)cc(O)c12 [Luteolin, reference compound]	–	4400	–	–	–	–	–	–	–	–	–	–	–	did not undergo FS reduction
